Drawing on US20100063049A1, “2-CARBOCYCLOAMINO-4-IMIDAZOLYLPYRIMIDINES AS AGENTS FOR THE INHBITION OF CELL PROLIFERATION” (priority 2006, published 2010), this text covers IC50 for one molecule.

This experiment concerns the target T1, CDK2/Cyclin E (Homo sapiens, UniProt P24941).
T1 construct: The open reading frames of CDK2 and Cyclin E were isolated by reverse transcriptase-PCR; made in house; host or cells: Spodoptera frugiperda SF21 insect cells (baculovirus co-infection); GST-Rb substrate made in E. coli BL21(DE3) pLysS
Description: in vitro kinase assay (Scintillation Proximity Assay), incorporation of [γ-33-P]-ATP into GST-Rb. Type of experiment: biochemical. Particulars: CDK2/Cyclin E partially-purified enzyme, GST-Rb substrate, 0.2 μM ATP, room temperature 60 mins; read-out: CDK2 inhibitory activity IC50. How it is done:
The compounds were tested in an in vitro kinase assay in 96 well format using Scintillation Proximity Assay (SPA—obtained from Amersham) for measuring incorporation of [γ-33-P]-Adenosine Triphosphate into a test substrate (GST-Retinoblastoma protein; GST-Rb). In each well was placed the compound to be tested (diluted in DMSO and water to correct concentrations) and in control wells either roscovitine as an inhibitor control or DMSO as a positive control. […]
The plates were sealed with Topseal-S plate sealers, left for two hrs then spun at 2500 rpm, 1124×g., for 5 mins. The plates were read on a Topcount for 30 seconds per well. […]
E. coli paste was resuspended in 10 ml/g of NETN buffer (50 mM Tris pH 7.5, 120 mM NaCl, 1 mM EDTA, 0.5% v/v NP-40, 1 mM PMSF, 1 ug/ml leupeptin, 1 ug/ml aprotinin and 1 ug/ml pepstatin) and sonicated for 2×45 seconds per 100 ml homogenate. […] The final product was analysed by Sodium Dodeca Sulfate (SDS) PAGE (Polyacrylamide gel) using 8-16% Tris-Glycine gels (Novex, San Diego, USA).
The open reading frames of CDK2 and Cyclin E were isolated by reverse transcriptase-PCR using HeLa cell and activated T cell mRNA as a template and cloned into the insect expression vector pVL1393 (obtained from Invitrogen 1995 catalogue number: V1392-20). […]

As to `Cc1ncc(-c2ccnc(N[C@H]3CC[C@H](N(C)C)CC3)n2)n1C(C)C` [Example 4, trans-N′,N′-Dimethyl-N-[4-(2-methyl-3-propan-2-yl-imidazol-4-yl)pyrimidin-2-yl]cyclohexane-1,4-diamine], the IC50 was determined as 0.159 µM.
